Measurements reported in patent publication US7138361B2, “Herbicidal heterocycles” (E. I. du Pont de Nemours and Company, priority 2000, dated 2006).

Tests used:
Format in all cases: in vivo
[1] = system: Surinam grass (Brachiaria decumbens); assay: Test B postemergence; settings: 13 to 15 days
Outline: (§1)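 Preemergence: seeds planted and treated with test chemicals in non-phytotoxic solvent with surfactant; postemergence on plants 2–18 cm (1- to 4-leaf stage). Kept in greenhouse 13–15 days, then visually rated against controls on a 0 (no effect) to 100 (complete control) scale.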

[2] = system: barnyardgrass (Echinochloa crus-galli); assay: Test B postemergence; settings: 13 to 15 days
Outline: as §1

[3] = system: blackgrass (Alopecurus myosuroides); assay: Test B postemergence; settings: 13 to 15 days
Outline: as §1

[4] = system: cocklebur (Xanthium strumarium); assay: Test B postemergence; settings: 13 to 15 days
Outline: as §1

[5] = system: corn (Zea mays); assay: Test B postemergence; settings: 13 to 15 days
Outline: as §1

[6] = system: crabgrass (Digitaria sanguinalis); assay: Test B postemergence; settings: 13 to 15 days
Outline: as §1

[7] = system: giant foxtail (Setaria faberii); assay: Test B postemergence; settings: 13 to 15 days
Outline: as §1

[8] = system: lambsquarters (Chenopodium album); assay: Test B postemergence; settings: 13 to 15 days
Outline: as §1

[9] = system: morning glory (Ipomoea hederacea); assay: Test B postemergence; settings: 13 to 15 days
Outline: as §1

[10] = system: pigweed (Amaranthus retroflexus); assay: Test B postemergence; settings: 13 to 15 days
Outline: as §1

[11] = system: velvetleaf (Abutilon theophrasti); assay: Test B postemergence; settings: 13 to 15 days
Outline: as §1

[12] = system: wheat (Triticum aestivum); assay: Test B postemergence; settings: 13 to 15 days
Outline: as §1

[13] = system: wild oat (Avena fatua); assay: Test B postemergence; settings: 13 to 15 days
Outline: as §1

[14] = system: Surinam grass (Brachiaria decumbens); assay: Test B preemergence; settings: scale 0 to 100, 0 no effect, 100 complete control
Outline: as §1

[15] = system: barnyardgrass (Echinochloa crus-galli); assay: Test B preemergence; settings: scale 0 to 100, 0 no effect, 100 complete control
Outline: as §1

[16] = system: cocklebur (Xanthium strumarium); assay: Test B preemergence; settings: scale 0 to 100, 0 no effect, 100 complete control
Outline: as §1

[17] = system: corn (Zea mays); assay: Test B preemergence; settings: scale 0 to 100, 0 no effect, 100 complete control
Outline: as §1

[18] = system: crabgrass (Digitaria sanguinalis); assay: Test B preemergence; settings: scale 0 to 100, 0 no effect, 100 complete control
Outline: as §1

[19] = system: giant foxtail (Setaria faberii); assay: Test B preemergence; settings: scale 0 to 100, 0 no effect, 100 complete control
Outline: as §1

[20] = system: lambsquarters (Chenopodium album); assay: Test B preemergence; settings: scale 0 to 100, 0 no effect, 100 complete control
Outline: as §1

[21] = system: morning glory (Ipomoea hederacea); assay: Test B preemergence; settings: scale 0 to 100, 0 no effect, 100 complete control
Outline: as §1

[22] = system: pigweed (Amaranthus retroflexus); assay: Test B preemergence; settings: scale 0 to 100, 0 no effect, 100 complete control
Outline: as §1

[23] = system: rice (Oryza saliva); assay: Test B preemergence; settings: scale 0 to 100, 0 no effect, 100 complete control
Outline: as §1

[24] = system: velvetleaf (Abutilon theophrasti); assay: Test B preemergence; settings: scale 0 to 100, 0 no effect, 100 complete control
Outline: as §1

[25] = system: smallflower flatsedge (Cyperus difformis); assay: Test C flooded paddy test; settings: for Flatsedge plant response rating: Flooded Paddy, scale 0 to 100, 0 no effect, 100 complete control; for Plant response rating, Flatsedge: flooded paddy test, scale 0 to 100 (0 no effect, 100 complete control)
Outline: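 Plants were grown to the 2-leaf stage under flooded paddy conditions and treated. They were then kept in a greenhouse for 12 to 14 days and visually rated against untreated controls on a 0–100 scale, where 0 is no effect and 100 is complete control.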

[26] = system: Sunflower; assay: Test C preemergence; settings: Rate 250 g/ha, visual evaluation after 12 to 14 days
[27] = system: Sunflower; assay: Test C preemergence; settings: Rate 125 g/ha, scale 0 to 100, 0 no effect, 100 complete control
[28] = Rate 125 g/ha, scale 0 (no effect) to 100 (complete control)
[29] = Rate 500 g/ha, scale 0 to 100, 0 is no effect, 100 is complete control

O=C1C(n2ccc(C3CC3)n2)CCN1c1cccc(C(F)(F)F)c1 (stereo not shown) [Compound 8]
Plant response rating, Surinam grass [1, 28]: 0 | Plant response rating, Surinam grass [1, 29]: 0 | Plant response rating, Barnyardgrass [2, 28]: 0 | Plant response rating, Barnyardgrass [2, 29]: 0 | Plant response rating, Blackgrass [3, 28]: 0 | Plant response rating, Blackgrass [3, 29]: 0 | Plant response rating, Cocklebur [4, 28]: 0 | Plant response rating, Cocklebur [4, 29]: 10 | Plant response rating, Corn [5, 28]: 0 | Plant response rating, Corn [5, 29]: 0 | Plant response rating, Crabgrass [6, 28]: 0 | Plant response rating, Crabgrass [6, 29]: 0 | Plant response rating, Foxtail, Giant [7, 28]: 0 | Plant response rating, Foxtail, Giant [7, 29]: 0 | Plant response rating, Lambsquarters [8, 28]: 30 | Plant response rating, Lambsquarters [8, 29]: 50 | Plant response rating, Morningglory [9, 28]: 0 | Plant response rating, Morningglory [9, 29]: 0 | Plant response rating, Pigweed [10, 28]: 0 | Plant response rating, Pigweed [10, 29]: 10 | Plant response rating, Velvetleaf [11, 28]: 0 | Plant response rating, Velvetleaf [11, 29]: 0 | Plant response rating, Wheat [12, 28]: 0 | Plant response rating, Wheat [12, 29]: 0 | Plant response rating, Wild Oat [13, 28]: 0 | Plant response rating, Wild Oat [13, 29]: 0 | Plant response rating, Surinam grass ([14]; Preemergence, Rate 500 g/ha): 70 | Plant response rating, Surinam grass ([14]; preemergence, Rate 125 g/ha): 20 | Plant response rating, Barnyardgrass ([15]; Preemergence, Rate 500 g/ha): 70 | Plant response rating, Barnyardgrass ([15]; preemergence, Rate 125 g/ha): 0 | Plant response rating, Cocklebur ([16]; Preemergence, Rate 500 g/ha): 0 | Plant response rating, Cocklebur ([16]; preemergence, Rate 125 g/ha): 0 | Plant response rating, Corn ([17]; Preemergence, Rate 500 g/ha): 0 | Plant response rating, Corn ([17]; preemergence, Rate 125 g/ha): 0 | Plant response rating, Crabgrass ([18]; Preemergence, Rate 500 g/ha): 100 | Plant response rating, Crabgrass ([18]; preemergence, Rate 125 g/ha): 30 | Plant response rating, Foxtail, Giant ([19]; Preemergence, Rate 500 g/ha): 90 | Plant response rating, Foxtail, Giant ([19]; preemergence, Rate 125 g/ha): 40 | Plant response rating, Lambsquarters ([20]; Preemergence, Rate 500 g/ha): 100 | Plant response rating, Lambsquarters ([20]; preemergence, Rate 125 g/ha): 0 | Plant response rating, Morningglory ([21]; Preemergence, Rate 500 g/ha): 0 | Plant response rating, Morningglory ([21]; preemergence, Rate 125 g/ha): 0 | Plant response rating, Pigweed ([22]; Preemergence, Rate 500 g/ha): 100 | Plant response rating, Pigweed ([22]; preemergence, Rate 125 g/ha): 20 | Plant response rating, Rice ([23]; Preemergence, Rate 500 g/ha): 0 | Plant response rating, Rice ([23]; preemergence, Rate 125 g/ha): 0 | Plant response rating, Velvetleaf ([24]; Preemergence, Rate 500 g/ha): 0 | Plant response rating, Velvetleaf ([24]; preemergence, Rate 125 g/ha): 0 | Flatsedge plant response rating ([25]; Rate 250 g/ha): 100 | Flatsedge plant response rating ([25]; Rate 500 g/ha): 100 | Flatsedge plant response rating ([25]; rate of this column group stands in head line r653, not shown (group before Rate 500 g/ha)): 100 | Plant response rating, Flatsedge ([25]; Rate 62 g/ha): 30 | Plant response rating, Flatsedge ([25]; Rate 125 g/ha): 90 | Plant response rating (0 to 100), Sunflower [26]: 0 | Plant response rating, Sunflower [27]: 0
